Source: ChEMBL document CHEMBL1201862, “PubChem BioAssay data set” (2004)
Active and inactive are the calls of the source.

Experiments:
[1] = biological target: Arf-GAP with SH3 domain, ANK repeat and PH domain-containing protein 1 (Homo sapiens, UniProt Q9ULH1); format: functional;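 note: biochemical fluorescence polarization dose–response screen measuring inhibition of ASAP1; ASAP1 GAP domain stimulating GTP hydrolysis by truncated human ARF1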
[2] = biological target: T1, Calpain-2 catalytic subunit (Sus scrofa, UniProt P43367); experiment: m-calpain protease blockers, concentration series – biochemical, fluorogenic peptide substrate, dose response (AID 1420); format: functional
T1 sequence (P43367 whole entry): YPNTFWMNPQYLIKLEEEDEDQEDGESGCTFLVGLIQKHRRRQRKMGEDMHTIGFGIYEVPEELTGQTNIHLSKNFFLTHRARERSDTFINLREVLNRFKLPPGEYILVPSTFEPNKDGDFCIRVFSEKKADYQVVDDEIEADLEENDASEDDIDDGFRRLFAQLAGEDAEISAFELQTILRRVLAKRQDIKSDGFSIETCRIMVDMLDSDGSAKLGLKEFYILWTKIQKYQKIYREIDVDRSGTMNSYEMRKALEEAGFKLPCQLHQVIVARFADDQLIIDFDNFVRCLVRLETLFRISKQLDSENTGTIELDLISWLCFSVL

Protein RecA = biological target: T2, Protein RecA (Mycobacterium tuberculosis, UniProt P9WHJ3); experiment: Fluorescence Cell-Free Homogeneous Dose Retest to Identify Inhibitors of RecA-Intein Splicing Activity. [Related pubchem assays (depositor defined):AID2097, AID2223, AID489010, AID492950]; format: functional
T2 sequence (P9WHJ3 whole entry): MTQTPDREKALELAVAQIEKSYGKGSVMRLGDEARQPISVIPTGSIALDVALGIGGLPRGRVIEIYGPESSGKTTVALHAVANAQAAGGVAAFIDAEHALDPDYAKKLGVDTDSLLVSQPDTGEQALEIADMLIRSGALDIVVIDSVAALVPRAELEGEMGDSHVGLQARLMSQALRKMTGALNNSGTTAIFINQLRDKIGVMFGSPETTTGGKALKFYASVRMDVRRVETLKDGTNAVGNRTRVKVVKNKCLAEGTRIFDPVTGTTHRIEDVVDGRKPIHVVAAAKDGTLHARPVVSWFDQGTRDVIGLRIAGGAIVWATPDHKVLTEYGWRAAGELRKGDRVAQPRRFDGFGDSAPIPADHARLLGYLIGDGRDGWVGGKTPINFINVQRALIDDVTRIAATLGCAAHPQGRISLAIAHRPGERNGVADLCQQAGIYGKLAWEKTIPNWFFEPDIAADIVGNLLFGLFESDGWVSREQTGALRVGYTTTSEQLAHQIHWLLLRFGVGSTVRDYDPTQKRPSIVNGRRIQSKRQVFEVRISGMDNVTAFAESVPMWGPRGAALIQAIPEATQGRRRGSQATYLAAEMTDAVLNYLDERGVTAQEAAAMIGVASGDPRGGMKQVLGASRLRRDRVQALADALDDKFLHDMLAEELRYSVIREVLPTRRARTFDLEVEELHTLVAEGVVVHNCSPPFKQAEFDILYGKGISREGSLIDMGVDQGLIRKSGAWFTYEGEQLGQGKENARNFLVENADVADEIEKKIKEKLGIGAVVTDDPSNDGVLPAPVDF

[3] = biological target: T3, Replicative DNA helicase DnaB (Mycobacterium tuberculosis, UniProt P9WMR3); experiment: DnaB intein splicing inhibitors, dose response, biochemical, cell-free fluorescence (AID 449749); format: functional
T3 sequence (P9WMR3 whole entry): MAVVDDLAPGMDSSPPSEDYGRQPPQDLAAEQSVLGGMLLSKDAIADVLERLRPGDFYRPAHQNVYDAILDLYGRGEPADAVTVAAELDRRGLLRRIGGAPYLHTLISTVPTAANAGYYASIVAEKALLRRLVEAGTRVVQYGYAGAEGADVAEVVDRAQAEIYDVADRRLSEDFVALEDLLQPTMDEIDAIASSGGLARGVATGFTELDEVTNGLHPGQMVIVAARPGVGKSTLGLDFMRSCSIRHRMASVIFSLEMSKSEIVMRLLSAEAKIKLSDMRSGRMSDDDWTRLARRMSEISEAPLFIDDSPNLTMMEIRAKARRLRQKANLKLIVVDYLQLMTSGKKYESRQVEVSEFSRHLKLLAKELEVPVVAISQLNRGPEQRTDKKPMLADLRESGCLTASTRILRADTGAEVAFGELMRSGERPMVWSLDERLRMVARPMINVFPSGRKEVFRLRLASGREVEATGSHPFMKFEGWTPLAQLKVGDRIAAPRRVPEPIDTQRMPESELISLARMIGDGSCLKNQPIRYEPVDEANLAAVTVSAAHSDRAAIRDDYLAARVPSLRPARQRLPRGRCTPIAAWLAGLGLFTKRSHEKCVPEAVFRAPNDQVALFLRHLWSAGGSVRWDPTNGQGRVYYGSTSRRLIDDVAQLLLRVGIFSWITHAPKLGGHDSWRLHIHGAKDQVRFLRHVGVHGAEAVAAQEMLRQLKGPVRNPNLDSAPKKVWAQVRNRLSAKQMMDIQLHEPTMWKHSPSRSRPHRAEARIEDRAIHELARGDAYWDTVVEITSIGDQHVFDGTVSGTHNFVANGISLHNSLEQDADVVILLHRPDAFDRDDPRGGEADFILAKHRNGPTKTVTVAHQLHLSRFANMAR

[4] = biological target: DNA repair protein RAD52 homolog (Homo sapiens, UniProt P43351); format: functional, biochemical
Sequence of DNA repair protein RAD52 homolog (P43351 whole entry): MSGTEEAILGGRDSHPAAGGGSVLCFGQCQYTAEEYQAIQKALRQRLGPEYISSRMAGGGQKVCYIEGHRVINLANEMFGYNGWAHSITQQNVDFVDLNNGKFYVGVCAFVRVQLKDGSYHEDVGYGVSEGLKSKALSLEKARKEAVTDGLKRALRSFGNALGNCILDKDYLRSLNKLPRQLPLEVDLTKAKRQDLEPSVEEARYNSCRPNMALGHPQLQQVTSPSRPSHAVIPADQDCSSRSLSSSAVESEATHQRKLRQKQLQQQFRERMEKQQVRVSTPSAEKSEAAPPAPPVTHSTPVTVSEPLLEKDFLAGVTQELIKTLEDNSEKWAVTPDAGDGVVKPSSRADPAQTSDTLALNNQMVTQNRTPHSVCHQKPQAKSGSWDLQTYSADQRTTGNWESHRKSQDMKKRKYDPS

[5] = biological target: Long-chain-fatty-acid--AMP ligase FadD28 (Mycobacterium tuberculosis, UniProt P9WQ59); experiment: Fluorescence polarization aasay to screen for inhibitors that compete for the binding of FadD28 to a bisubstrate Measured in Biochemical System Using Plate Reader - 2147-01_Inhibitor_Dose_CherryPick_Activity.; format: functional, Mycobacterium tuberculosis H37Rv
Sequence of Long-chain-fatty-acid--AMP ligase FadD28 (P9WQ59 whole entry, the tested form may be a part): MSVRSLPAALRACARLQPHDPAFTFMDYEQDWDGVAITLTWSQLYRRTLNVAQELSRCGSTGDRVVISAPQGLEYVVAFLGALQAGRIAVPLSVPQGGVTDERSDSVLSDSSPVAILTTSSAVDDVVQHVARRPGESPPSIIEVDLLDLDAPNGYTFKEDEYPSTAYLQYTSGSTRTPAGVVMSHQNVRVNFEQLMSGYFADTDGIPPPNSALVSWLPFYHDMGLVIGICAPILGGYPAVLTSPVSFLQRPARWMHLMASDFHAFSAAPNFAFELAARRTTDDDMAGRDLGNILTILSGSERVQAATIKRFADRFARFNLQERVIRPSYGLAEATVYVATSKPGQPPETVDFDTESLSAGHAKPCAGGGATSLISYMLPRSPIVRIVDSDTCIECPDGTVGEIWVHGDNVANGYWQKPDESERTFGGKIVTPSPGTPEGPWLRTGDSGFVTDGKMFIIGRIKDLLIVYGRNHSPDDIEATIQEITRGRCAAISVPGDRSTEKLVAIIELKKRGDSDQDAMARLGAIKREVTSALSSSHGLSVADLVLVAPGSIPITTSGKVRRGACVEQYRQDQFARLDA

[6] = biological target: T4, RNA-binding protein pos-1 (Caenorhabditis elegans, UniProt G5EF15); experiment: disruptors of C. elegans POS-1 RNA interaction – biochemical, fluorescence polarization, dose response (AID 1964);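 note: purified POS-1 fused to maltose binding protein made in E. coli; potency of compounds blocking POS-1 binding to fluorescent RNA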
T4 sequence (G5EF15 whole entry): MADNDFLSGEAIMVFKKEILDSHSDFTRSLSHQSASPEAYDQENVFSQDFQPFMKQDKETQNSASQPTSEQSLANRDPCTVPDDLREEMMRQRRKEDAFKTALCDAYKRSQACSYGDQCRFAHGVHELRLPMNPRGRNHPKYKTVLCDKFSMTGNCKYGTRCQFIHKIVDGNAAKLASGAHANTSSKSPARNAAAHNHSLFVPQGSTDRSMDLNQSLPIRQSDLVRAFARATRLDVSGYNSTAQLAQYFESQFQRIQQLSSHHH

[7] = biological target: T5, Zinc finger protein mex-5 (Caenorhabditis elegans, UniProt Q9XUB2); experiment: potency of MEX-5 RNA-binding blockers – biochemical, C. elegans, fluorescence polarization, dose response (AID 1960)
T5 sequence (Q9XUB2 whole entry): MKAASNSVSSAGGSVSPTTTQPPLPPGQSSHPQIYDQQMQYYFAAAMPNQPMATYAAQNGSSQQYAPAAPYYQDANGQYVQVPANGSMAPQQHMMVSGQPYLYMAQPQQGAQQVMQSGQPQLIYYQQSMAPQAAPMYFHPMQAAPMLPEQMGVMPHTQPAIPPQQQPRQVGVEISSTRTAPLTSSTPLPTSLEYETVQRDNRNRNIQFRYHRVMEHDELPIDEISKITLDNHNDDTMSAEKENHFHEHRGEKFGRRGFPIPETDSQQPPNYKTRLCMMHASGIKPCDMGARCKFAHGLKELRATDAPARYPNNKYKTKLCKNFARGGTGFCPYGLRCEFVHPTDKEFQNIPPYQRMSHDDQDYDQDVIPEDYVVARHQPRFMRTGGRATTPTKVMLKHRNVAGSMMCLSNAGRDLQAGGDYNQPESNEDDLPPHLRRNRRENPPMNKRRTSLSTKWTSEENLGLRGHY

[8] = biological target: T6, Sentrin-specific protease 1 (Homo sapiens, UniProt Q9P0U3); experiment: SENP1 catalytic domain blockers, concentration series – biochemical, kinetic FRET, dose response (AID 651697); format: functional; conditions: read-out: IC50_Mean
T6 sequence (Q9P0U3 whole entry): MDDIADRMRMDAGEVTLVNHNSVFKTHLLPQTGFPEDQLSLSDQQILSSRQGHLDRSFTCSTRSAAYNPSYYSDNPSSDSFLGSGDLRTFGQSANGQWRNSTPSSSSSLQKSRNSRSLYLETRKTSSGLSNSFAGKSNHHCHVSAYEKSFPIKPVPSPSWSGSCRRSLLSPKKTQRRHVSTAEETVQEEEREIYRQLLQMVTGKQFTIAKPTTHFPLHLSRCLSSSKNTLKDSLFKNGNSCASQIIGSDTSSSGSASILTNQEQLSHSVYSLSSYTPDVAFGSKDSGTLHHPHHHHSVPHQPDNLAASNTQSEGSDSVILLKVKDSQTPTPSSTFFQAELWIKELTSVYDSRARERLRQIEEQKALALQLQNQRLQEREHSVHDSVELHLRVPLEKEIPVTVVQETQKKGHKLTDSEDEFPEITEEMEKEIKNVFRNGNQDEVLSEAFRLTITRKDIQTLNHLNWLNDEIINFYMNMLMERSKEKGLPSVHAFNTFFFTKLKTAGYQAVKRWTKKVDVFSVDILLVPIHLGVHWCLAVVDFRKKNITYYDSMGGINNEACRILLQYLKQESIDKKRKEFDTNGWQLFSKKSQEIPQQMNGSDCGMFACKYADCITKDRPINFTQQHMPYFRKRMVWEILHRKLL

[9] = biological target: T6, Sentrin-specific protease 1; experiment: Dose response confirmation of small molecule inhibitors of the catalytic domain of the SUMO protease, SENP1 in a FRET assay.; format: functional; conditions: read-out: IC50_Mean
Nonstructural protein 1 = Nonstructural protein 1 (Influenza A virus, UniProt Q194T2); format: functional, Influenza A virus (A/California/07/2009(H1N1))
Sequence of Nonstructural protein 1 (Q194T2 whole entry): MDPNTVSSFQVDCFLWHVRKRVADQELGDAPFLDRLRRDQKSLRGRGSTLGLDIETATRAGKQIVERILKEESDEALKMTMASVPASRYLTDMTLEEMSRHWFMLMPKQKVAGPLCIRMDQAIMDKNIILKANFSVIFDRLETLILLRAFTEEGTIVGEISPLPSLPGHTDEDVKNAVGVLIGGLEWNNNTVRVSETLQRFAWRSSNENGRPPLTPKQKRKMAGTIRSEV

[10] = biological target: Histone-lysine N-methyltransferase NSD2 (Homo sapiens, UniProt O96028); format: biochemical
[11] = HIV-1 AD8 envelope cell-cell fusion blockers – cherry-pick, dose response (AID 652062); format: functional, cell-based;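 note: luciferase signal from cell-cell fusion driven by HIV-1 clade B AD8 Env; potency is for inhibitors of fusion seen as a drop in luminescence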
[12] = off-target signal loss in HeLa-CEM21 co-culture – HeLa F-luc CTL cells, cherry-picked, counter-screen for HIV-1 Env fusion inhibitor project, dose response (AID 652040); format: functional, cell-based;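 note: potency for signal decrease marking cytotoxic or nonspecific inhibition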
Cytochrome P450 2C9 = Cytochrome P450 2C9 (Homo sapiens, UniProt P11712)
Sequence of Cytochrome P450 2C9 (P11712 whole entry): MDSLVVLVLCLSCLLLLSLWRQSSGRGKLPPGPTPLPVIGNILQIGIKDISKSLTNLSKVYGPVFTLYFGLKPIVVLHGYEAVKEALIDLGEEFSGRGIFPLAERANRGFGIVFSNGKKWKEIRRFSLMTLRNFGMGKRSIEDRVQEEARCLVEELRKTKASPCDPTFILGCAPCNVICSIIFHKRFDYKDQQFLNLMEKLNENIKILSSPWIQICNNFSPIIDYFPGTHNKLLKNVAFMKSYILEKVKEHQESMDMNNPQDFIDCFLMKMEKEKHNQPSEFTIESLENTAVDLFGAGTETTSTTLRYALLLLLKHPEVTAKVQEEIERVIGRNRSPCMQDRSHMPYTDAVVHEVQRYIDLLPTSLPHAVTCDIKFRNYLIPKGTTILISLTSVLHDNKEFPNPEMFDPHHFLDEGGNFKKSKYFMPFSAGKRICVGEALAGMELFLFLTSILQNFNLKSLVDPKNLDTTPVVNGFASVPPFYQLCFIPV

[13] = biological target: T7, Mitochondrial peptide methionine sulfoxide reductase (Bos taurus, UniProt P54149); experiment: Absorbance-based biochemical high throughput dose response assay for activators of Methionine sulfoxide reductase A (MsrA).; format: functional
T7 sequence (P54149 whole entry): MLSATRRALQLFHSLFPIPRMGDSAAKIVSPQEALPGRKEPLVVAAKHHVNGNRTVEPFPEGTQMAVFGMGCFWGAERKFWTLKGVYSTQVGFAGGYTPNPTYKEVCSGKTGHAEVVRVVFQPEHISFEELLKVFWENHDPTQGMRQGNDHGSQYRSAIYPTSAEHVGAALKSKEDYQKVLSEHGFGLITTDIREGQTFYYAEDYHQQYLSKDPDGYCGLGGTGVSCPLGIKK

[14] = Counterscreen for activators of the function of SWI/SNF related, matrix associated, actin dependent regulator of chromatin, subfamily a, member 2 (SMARCA2, BRM): Luminescence-based cell-based high throughput dose response assay to identify non-selective compounds using the VP16 reporter assay.; format: functional
Vero = experiment: cells; format: functional; conditions: Chlorocebus sabaeus
[15] = biological target: SWI/SNF-related matrix-associated actin-dependent regulator of chromatin subfamily A member 2 (Homo sapiens, UniProt P51531); experiment: Luminescence-based cell-based high throughput dose response assay to identify activators of the function of SWI/SNF related, matrix associated, actin dependent regulator of chromatin, subfamily a, member 2 (SMARCA2, BRM).; format: functional
Sequence of SWI/SNF-related matrix-associated actin-dependent regulator of chromatin subfamily A member 2 (P51531 whole entry): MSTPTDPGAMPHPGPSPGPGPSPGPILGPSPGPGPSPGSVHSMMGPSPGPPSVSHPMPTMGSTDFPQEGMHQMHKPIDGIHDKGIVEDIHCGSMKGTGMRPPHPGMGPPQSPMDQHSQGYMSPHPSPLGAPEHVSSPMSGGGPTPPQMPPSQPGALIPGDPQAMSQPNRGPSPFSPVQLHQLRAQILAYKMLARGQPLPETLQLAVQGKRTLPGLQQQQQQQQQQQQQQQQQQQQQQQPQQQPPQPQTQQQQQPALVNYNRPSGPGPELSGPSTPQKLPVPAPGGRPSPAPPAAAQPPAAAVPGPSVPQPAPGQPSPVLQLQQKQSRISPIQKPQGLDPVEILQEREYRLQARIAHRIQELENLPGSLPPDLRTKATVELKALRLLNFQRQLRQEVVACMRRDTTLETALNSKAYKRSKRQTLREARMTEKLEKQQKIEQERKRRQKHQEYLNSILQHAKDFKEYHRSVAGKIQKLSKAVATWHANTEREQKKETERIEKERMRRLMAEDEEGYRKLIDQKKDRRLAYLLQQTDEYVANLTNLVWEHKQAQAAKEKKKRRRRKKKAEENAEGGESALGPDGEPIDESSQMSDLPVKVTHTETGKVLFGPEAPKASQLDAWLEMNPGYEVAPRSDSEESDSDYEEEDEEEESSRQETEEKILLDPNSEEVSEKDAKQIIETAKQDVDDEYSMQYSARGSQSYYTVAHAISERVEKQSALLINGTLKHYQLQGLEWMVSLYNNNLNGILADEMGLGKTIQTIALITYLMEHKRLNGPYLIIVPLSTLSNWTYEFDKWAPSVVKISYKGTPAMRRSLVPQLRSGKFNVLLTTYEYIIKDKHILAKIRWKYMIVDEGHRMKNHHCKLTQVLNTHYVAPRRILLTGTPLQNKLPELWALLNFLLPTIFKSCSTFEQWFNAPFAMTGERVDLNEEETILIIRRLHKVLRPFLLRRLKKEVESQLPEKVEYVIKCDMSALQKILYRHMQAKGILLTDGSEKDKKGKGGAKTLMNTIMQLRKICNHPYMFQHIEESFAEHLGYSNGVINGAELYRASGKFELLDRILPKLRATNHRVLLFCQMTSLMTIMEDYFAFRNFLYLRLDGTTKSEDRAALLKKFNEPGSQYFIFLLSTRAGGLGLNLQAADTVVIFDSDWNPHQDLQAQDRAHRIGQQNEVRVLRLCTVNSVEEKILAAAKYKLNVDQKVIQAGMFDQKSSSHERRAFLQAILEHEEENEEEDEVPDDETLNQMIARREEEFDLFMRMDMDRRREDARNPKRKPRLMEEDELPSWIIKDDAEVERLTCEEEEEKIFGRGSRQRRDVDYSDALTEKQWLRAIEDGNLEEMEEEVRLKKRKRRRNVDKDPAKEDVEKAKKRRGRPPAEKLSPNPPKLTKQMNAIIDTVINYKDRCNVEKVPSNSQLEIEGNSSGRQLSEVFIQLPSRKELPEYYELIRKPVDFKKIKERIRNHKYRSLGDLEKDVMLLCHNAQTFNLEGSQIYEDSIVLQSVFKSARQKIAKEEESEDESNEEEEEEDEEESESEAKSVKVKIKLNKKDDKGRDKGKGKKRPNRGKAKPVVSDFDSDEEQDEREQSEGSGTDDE

Protein Wnt-3a = Protein Wnt-3a (Mus musculus, UniProt P27467); experiment: SAR analysis of small molecule antagonists of Gli-SUFU in a Wnt3a luminescent reporter assay.; format: functional
Sequence of Protein Wnt-3a (P27467 whole entry): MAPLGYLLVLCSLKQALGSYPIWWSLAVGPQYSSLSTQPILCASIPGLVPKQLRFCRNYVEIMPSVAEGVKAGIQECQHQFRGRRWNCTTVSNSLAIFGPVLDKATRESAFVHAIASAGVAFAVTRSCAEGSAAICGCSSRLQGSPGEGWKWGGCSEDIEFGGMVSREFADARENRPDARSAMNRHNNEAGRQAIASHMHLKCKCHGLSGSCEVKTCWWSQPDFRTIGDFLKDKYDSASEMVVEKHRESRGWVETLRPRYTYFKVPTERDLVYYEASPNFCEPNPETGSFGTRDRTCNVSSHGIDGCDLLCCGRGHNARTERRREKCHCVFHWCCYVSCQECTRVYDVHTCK

[16] = general mammalian cell viability loss – activator set, cherry-pick, cytotoxicity control for miR-122 modulator project, dose response (AID 720690); format: functional, cell-based;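 note: HEK293T human cells scored for general mammalian cytotoxicity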
[17] = viability loss in A549 lung cancer cells – cell-based, cherry-picks, […], cytotoxicity control, dose response (AID 1053119); format: functional

Sequence of Arf-GAP with SH3 domain, ANK repeat and PH domain-containing protein 1 (Q9ULH1 whole entry, the tested form may be a part): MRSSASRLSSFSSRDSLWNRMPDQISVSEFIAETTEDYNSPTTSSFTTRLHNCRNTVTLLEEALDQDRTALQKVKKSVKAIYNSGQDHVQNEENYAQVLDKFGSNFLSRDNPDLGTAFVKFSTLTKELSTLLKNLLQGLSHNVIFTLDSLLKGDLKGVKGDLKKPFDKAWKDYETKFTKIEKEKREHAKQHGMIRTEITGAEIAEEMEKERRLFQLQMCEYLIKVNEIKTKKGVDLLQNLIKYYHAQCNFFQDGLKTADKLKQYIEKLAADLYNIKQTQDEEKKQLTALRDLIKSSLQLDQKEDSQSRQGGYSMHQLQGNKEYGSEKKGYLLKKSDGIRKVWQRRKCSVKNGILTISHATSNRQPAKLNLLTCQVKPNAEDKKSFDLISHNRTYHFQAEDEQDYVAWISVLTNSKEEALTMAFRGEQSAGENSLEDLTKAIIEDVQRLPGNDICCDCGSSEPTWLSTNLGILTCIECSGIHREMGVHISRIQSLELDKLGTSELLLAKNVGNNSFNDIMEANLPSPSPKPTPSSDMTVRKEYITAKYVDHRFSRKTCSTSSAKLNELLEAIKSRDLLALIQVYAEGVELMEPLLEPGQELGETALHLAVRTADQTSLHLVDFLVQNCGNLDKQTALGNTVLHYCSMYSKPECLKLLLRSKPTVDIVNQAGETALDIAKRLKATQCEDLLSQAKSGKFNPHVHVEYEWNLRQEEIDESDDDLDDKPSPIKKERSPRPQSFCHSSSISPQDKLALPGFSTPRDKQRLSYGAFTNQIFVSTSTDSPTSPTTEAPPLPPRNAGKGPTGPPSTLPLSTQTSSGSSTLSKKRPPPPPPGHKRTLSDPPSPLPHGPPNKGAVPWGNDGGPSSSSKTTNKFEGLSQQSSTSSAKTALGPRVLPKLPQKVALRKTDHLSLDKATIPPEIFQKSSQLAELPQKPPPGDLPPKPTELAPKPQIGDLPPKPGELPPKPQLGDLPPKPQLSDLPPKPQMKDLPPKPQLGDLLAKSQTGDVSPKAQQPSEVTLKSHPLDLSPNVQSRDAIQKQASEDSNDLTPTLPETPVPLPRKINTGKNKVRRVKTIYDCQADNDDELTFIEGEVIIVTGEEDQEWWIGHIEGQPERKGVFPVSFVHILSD

O=C(Nc1ccc2oc(=O)ccc2c1)c1ccc(-c2ccc(Cl)cc2)o1
IC50 [1]: 9.51 µM (active)
IC50 [2]: 18.2 µM (not active)

Nc1ccc2[nH]cnc2c1
EC50 (Protein RecA): 23.6 µM (active)
AC50 [3]: 2.92 µM (active)
AC50 [4]: 6.22 µM (active)

Nc1nnc(SCCCOc2ccc(F)cc2)s1
AC50 [5]: 46.6 µM (active)

COc1ccc2nc3ccccc3nc2c1NC(=O)c1ccc(Br)cc1
EC50 [6]: 6.41 µM (active)
EC50 [7]: 6.66 µM (inconclusive)
IC50 [8]: 10 µM (active)
IC50 [9]: 9.47 µM (active)

COC1=C(Nc2ccc(OC)cc2)C(=O)c2ccccc2C1=O
IC50 (Nonstructural protein 1): 9.3 µM (active)
AC50 [10]: 8.98 µM (active)

Cc1ccc(N=C(S)N(C)Cc2cn(C)c3ccccc23)cc1
AC50 [5]: 78.8 µM (active)

O=C(Nc1ccc(S(=O)(=O)N2CCCC2)cc1)c1ccc(CN2CCOCC2)cc1
AC50 [11]: 6.7 µM (active)
AC50 [12]: > 70 µM (inactive)
AC50 (Cytochrome P450 2C9): 10 µM (inconclusive)

COc1cc2sc3ccc(C#Cc4ccccn4)cc3c(=O)c2cc1OC
IC50 [1]: 22.9 µM (inactive)

O=C(Nc1cccc([N+](=O)[O-])c1)c1ccc([N+](=O)[O-])o1
EC50 [13]: > 104 µM (inactive)
EC50 [14]: > 91.2 µM (inactive)
CC50 (Vero): 12 µM (active)
EC50 [15]: > 91.2 µM (inactive)

Cc1ccc(C(=O)Nc2cc(N3CCCCC3)ncn2)cc1
IC50 (Protein Wnt-3a): > 21.8 µM (inactive)

COc1ccc(CN(C)C[C@@H]2OCCCC[C@H](C)Oc3ccc(NC(=O)Nc4ccc(C(F)(F)F)cc4)cc3C(=O)N([C@H](C)CO)C[C@H]2C)cc1
AC50 [16]: 16.6 µM (active)

COc1cc(OC)cc(C(=O)Nc2cc(N3CCCCC3)ncn2)c1
IC50 (Protein Wnt-3a): > 21.8 µM (inactive)

CN(C)C(=O)c1ccc(-c2ccc3c(c2)[C@H]2[C@H](CCN2C(=O)c2ccc(F)cc2)[C@@H](CO)N3C)cc1
AC50 [17]: > 47 µM (inactive)

O=C1NC(=O)/C(=C/c2c(O)ccc3ccccc23)N1
IC50 [8]: 6.2 µM (active)
IC50 [9]: 4.34 µM (active)

C=C1C(=O)[C@]23C[C@H]1CC[C@H]2[C@]1(C)[C@@H](O)CC[C@@](C)(C(=O)O)[C@H]1C[C@@H]3O [GEOPYXIN A]
EC50 [14]: > 91.1 µM (inactive)
EC50 [15]: > 91.1 µM (inactive)
